From US20210221848A1, “POLYMYXIN DERIVATIVES AND THEIR USE IN COMBINATION THERAPY TOGETHER WITH DIFFERENT ANTIBIOTICS” (priority 2014, published 2021)
Read-outs that look alike come from different tables or passages of the source.

Columns and labels:
[1] = system: HK-2 cell line; assay: In vitro renal cell toxicity assay (resazurin reduction); details: HK-2 cell IC50 expressed relative to the value for polymyxin B
Protocol: MICs were determined as described herein. HK-2 cell IC50 values were determined as described herein. Values are reported relative to Polymyxin B.

[2] = system: K. pneumoniae strains with elevated MICs to Polymyxin B; assay: MIC against strains with elevated MICs to Polymyxin B; type: cell-based, Klebsiella pneumoniae; details: for MIC K. pneumoniae 062: strain 062, elevated MIC to Polymyxin B; for MIC K. pneumoniae 063: strain 063, elevated MIC to Polymyxin B; for MIC K. pneumoniae 064: strain 064, elevated MIC to Polymyxin B; for MIC K. pneumoniae 655: strain 655, elevated MIC to Polymyxin B
In short: (§1)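 Reported MIC is the lower of duplicates agreeing within 2-fold, or the mode where compounds were tested repeatedly. Assays with greater than 2-fold duplicate variation were rejected. Colonies grown 18-24 hours on Mueller-Hinton agar were suspended to 0.5 McFarland as inoculum.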

[3] = system: P. aeruginosa strains with elevated MICs to Polymyxin B; assay: as above; type: cell-based, Pseudomonas aeruginosa; details: for MIC P. aeruginosa 065: strain 065, elevated MIC to Polymyxin B; for MIC P. aeruginosa 066: strain 066, elevated MIC to Polymyxin B; for MIC P. aeruginosa 067: strain 067, elevated MIC to Polymyxin B
In short: as §1

[4] = system: K. pneumoniae
[5] = system: P. aeruginosa ATCC 27853; assay: In vivo efficacy, thigh infection in mice, IV dosing, 9 h model; set-up: species or system Pseudomonas aeruginosa; details: mouse thigh
Protocol: Compounds were administered in solution by intravenous (IV) bolus injection into the lateral tail vein. […] At 1 hour post infection, 4 animals were humanely euthanized using pentabarbitone overdose to provide a pre-treatment control group. At 9 hours post infection, the clinical condition of all animals was assessed prior to them being humanely euthanized by pentabarbitone overdose. Animal weight was determined before both thighs were removed and weighed individually. Individual thigh tissue samples were homogenized in ice cold sterile phosphate buffered saline. Thigh homogenates were then quantitatively cultured onto cystine lactose electrolyte deficient (CLED) agar and incubated at 37° C. for 24 hours before colonies were counted.

[6] = system: A. baumannii
[7] = system: E. coli

Polymyxin B [PMB, reference compound]
HK-2 rel to PMB [1]: 1 | MIC K. pneumoniae 062 ([2]; Table 6D): 128 micrograms/mL | MIC K. pneumoniae 062 ([2]; Table 6F): 128 micrograms/mL | MIC K. pneumoniae 063 ([2]; Table 6D): 32 micrograms/mL | MIC K. pneumoniae 063 ([2]; Table 6F): 32 micrograms/mL | MIC K. pneumoniae 064 ([2]; Table 6D): 8 micrograms/mL | MIC K. pneumoniae 064 ([2]; Table 6F): 8 micrograms/mL | MIC K. pneumoniae 655 ([2]; Table 6D): 32 micrograms/mL | MIC K. pneumoniae 655 ([2]; Table 6F): 32 micrograms/mL | MIC P. aeruginosa 065 ([3]; Table 6D): 4 micrograms/mL | MIC P. aeruginosa 065 ([3]; Table 6F): 4 micrograms/mL | MIC P. aeruginosa 066 ([3]; Table 6D): 8 micrograms/mL | MIC P. aeruginosa 066 ([3]; Table 6F): 8 micrograms/mL | MIC P. aeruginosa 067 ([3]; Table 6D): 128 micrograms/mL | MIC P. aeruginosa 067 ([3]; Table 6F): 128 micrograms/mL | MIC ([4]; K. pneumoniae ATCC 4352): 0.25 µg/mL | MIC, K. pneumoniae ATCC 4352 ([4]; K. pneumoniae ATCC 4352, absence of a second agent, Table 6B): 0.25 micrograms/mL | MIC ([4]; K. pneumoniae ATCC BAA-2146): 0.5 µg/mL | MIC, K. pneumoniae ATCC BAA-2146 ([4]; K. pneumoniae ATCC BAA-2146, absence of a second agent, Table 6B): 0.5 micrograms/mL | MIC, K. pneumoniae ATCC 4352 ([4]; strain ATCC 4352, compound alone): 0.25 micrograms/mL | MIC, K. pneumoniae ATCC BAA-2146 ([4]; strain ATCC BAA-2146, compound alone): 0.5 micrograms/mL | Log reduction from vehicle (CFU/g) ([5]; dose 0.85 mg/kg drug base IV at 1, 3.5 and 6 h post-infection): 1.19 log10 CFU/g | Log reduction from vehicle (CFU/g) ([5]; dose 3.4 mg/kg drug base IV at 1, 3.5 and 6 h post-infection): 4.23 log10 CFU/g | MIC ([6]; A. baumannii ATCC BAA-747): 0.25 µg/mL | MIC, A. baumannii ATCC BAA-747 ([6]; A. baumannii ATCC BAA-747, absence of a second agent, Table 6B): 0.25 micrograms/mL | MIC ([6]; A. baumannii NCTC 13424): 0.5 µg/mL | MIC, A. baumannii NCTC 13424 ([6]; A. baumannii NCTC 13424, absence of a second agent, Table 6B): 0.5 micrograms/mL | MIC, A. baumannii ATCC BAA-747 ([6]; strain ATCC BAA-747, compound alone): 0.25 micrograms/mL | MIC, A. baumannii NCTC 13424 ([6]; strain NCTC 13424, compound alone): 0.5 micrograms/mL | MIC ([7]; E. coli ATCC 25922): 0.25 µg/mL | MIC, E. coli ATCC 25922 ([7]; E. coli ATCC 25922, absence of a second agent, Table 6B): 0.25 micrograms/mL | MIC ([7]; E. coli NCTC 13441): 0.25 µg/mL | MIC, E. coli NCTC 13441 ([7]; E. coli NCTC 13441, absence of a second agent, Table 6B): 0.25 micrograms/mL | MIC, E. coli ATCC 25922 ([7]; strain ATCC 25922, compound alone): 0.25 micrograms/mL | MIC E. coli CCUG 59342 ([7]; strain CCUG 59342, compound alone): 0.125 micrograms/mL
